The values below come from article PMC3362543 (2012).

For test [1], the system named is poly(U)•poly(A)*poly(U) (RNA, polymer) U/A/U. Description: fluorescence titration, Scatchard, McGhee-von Hippel non-cooperative. The settings on record: 35 mM Na+ (25 mM NaCl, 10 mM sodium cacodylate), 0.1 mM Na2EDTA, pH 7.0, 25 °C, intrinsic constant per isolated site, per base.
Test [2] shares this test system. Briefly: UV melting at 260 nm. The settings on record: 35 mM Na+ (25 mM NaCl, 10 mM sodium cacodylate), 0.1 mM Na2EDTA, pH 7.0, D/P 0.6, triplex 30 µM (compound 18 µM), third-strand transition, per base.
Test [3] has the same test system. Briefly: absorbance titration, Scatchard, McGhee-von Hippel non-cooperative. The settings on record: 35 mM Na+ (25 mM NaCl, 10 mM sodium cacodylate), 0.1 mM Na2EDTA, pH 7.0, 25 °C, intrinsic constant per isolated site, per base.
For test [4] the test system is unchanged. Description: ITC, single set of sites. The settings on record: 35 mM Na+ (25 mM NaCl, 10 mM sodium cacodylate), 0.1 mM Na2EDTA, pH 7.0, 25 °C, triplex 25 µM, per base.

On to `COc1ccc2cc3[n+](cc2c1OC)CCc1cc2c(cc1-3)OCO2`, for which the values for the Ki in test [1] and in test [3] were 3.9±0.05 × 10^5 M^-1 and 2.88±0.02 × 10^5 M^-1, respectively. The “ΔTm' (3→2)” value in test [2] was found to be 17.5 °C. Moreover, the Ka in test [4] is listed as 1.5±0.04 × 10^5 M^-1.

As to `COc1ccc2cc3[n+](cc2c1OCCCCCCN)CCc1cc2c(cc1-3)OCO2`, the Ki in test [1] is reported as 47.0±0.56 × 10^5 M^-1; in test [3], 39.87±0.41 × 10^5 M^-1. The “ΔTm' (3→2)” value in test [2] worked out at 20.5 °C. In addition, the Ka in test [4] was 23±0.10 × 10^5 M^-1.

For the compound `COc1ccc2cc3[n+](cc2c1OCCCN)CCc1cc2c(cc1-3)OCO2`, the Ki in test [1] was 9.5±0.10 × 10^5 M^-1; in test [3] it was 8.65±0.34 × 10^5 M^-1. Besides, in test [2], the “ΔTm' (3→2)” value amounted to 18.1 °C. In addition, the Ka in test [4] is on record as 9.73±0.09 × 10^5 M^-1.
